In patent US12077503B2, “Substituted cyclic amides and their use as herbicides” (FMC CORPORATION, priority 2015, dated 2024):

Columns and labels:
Type in all cases: in vivo
Kochia (Kochia scoparia) [1] = experiment: Test A preemergence; conditions: Preemergence; for Plant response rating, Kochia: 125 g ai/ha, visual injury after approximately 10 d, 0 to 100 scale where 0 is no effect and 100 is complete control; for Kochia plant response rating (0 to 100 scale, 0 is no effect, 100 is complete control): 500 g ai/ha, visual injury approx. 10 d
Source text: (§1) Seeds of plant species selected from barnyardgrass (Echinochloa crus-galli), Kochia (Kochia scoparia), ragweed (common ragweed, Ambrosia elatior), ryegrass, Italian (Italian ryegrass, Lolium multiflorum), crabgrass, large (Digitaria sanguinalis), giant foxtail (Setaria faberii), green foxtail (Setaria viridis), morningglory (Ipomoea spp.), pigweed (Amaranthus retroflexus), velvetleaf (Abutilon theophrasti), wheat (Triticum aestivum), and corn (Zea mays) were planted into a blend of loam soil and sand and treated preemergence with a directed soil spray using test chemicals formulated in anon-phytotoxic solvent mixture which included a surfactant.
(§2) At the same time, plants selected from these crop and weed species and also blackgrass (Alopecurus myosuroides), and Galium (catchweed bedstraw, Galium aparine) were planted in pots containing the same blend of loam soil and sand and treated with postemergence applications of test chemicals formulated in the same manner. Plants ranged in height from 2 to 10 cm and were in the one- to two-leaf stage for the postemergence treatment. Treated plants and untreated controls were maintained in a greenhouse for approximately 10 d, after which time all treated plants were compared to untreated controls and visually evaluated for injury. Plant response ratings, summarized in Table A, are based on a 0 to 100 scale where 0 is no effect and 100 is complete control. A dash (-) response means no test result.

[2] = system: barnyardgrass (Echinochloa crus-galli); experiment: Test A preemergence; conditions: Preemergence; for Plant response rating, Barnyardgrass: 125 g ai/ha, visual injury after approximately 10 d, 0 to 100 scale where 0 is no effect and 100 is complete control; for Barnyardgrass plant response rating (0 to 100 scale, 0 is no effect, 100 is complete control): 500 g ai/ha, visual injury approx. 10 d
Source text: as §1, §2

[3] = system: giant foxtail (Setaria faberii); experiment: Test A preemergence; conditions: Preemergence; for Plant response rating, Foxtail, Giant: 125 g ai/ha, visual injury after approximately 10 d, 0 to 100 scale where 0 is no effect and 100 is complete control; for Foxtail, Giant plant response rating (0 to 100 scale, 0 is no effect, 100 is complete control): 500 g ai/ha, visual injury approx. 10 d
Source text: as §1, §2

[4] = system: pigweed (Amaranthus retroflexus); experiment: Test A preemergence; conditions: Preemergence; for Plant response rating, Pigweed: 125 g ai/ha, visual injury after approximately 10 d, 0 to 100 scale where 0 is no effect and 100 is complete control; for Pigweed plant response rating (0 to 100 scale, 0 is no effect, 100 is complete control): 500 g ai/ha, visual injury approx. 10 d
Source text: as §1, §2

[5] = system: ragweed (common ragweed, Ambrosia elatior); experiment: Test A preemergence; conditions: Preemergence; for Plant response rating, Ragweed: 125 g ai/ha, visual injury after approximately 10 d, 0 to 100 scale where 0 is no effect and 100 is complete control; for Ragweed plant response rating (0 to 100 scale, 0 is no effect, 100 is complete control): 500 g ai/ha, visual injury approx. 10 d
Source text: as §1, §2

[6] = system: ryegrass, Italian (Italian ryegrass, Lolium multiflorum); experiment: Test A preemergence; conditions: Preemergence; for Plant response rating, Ryegrass, Italian: 125 g ai/ha, visual injury after approximately 10 d, 0 to 100 scale where 0 is no effect and 100 is complete control; for Ryegrass, Italian plant response rating (0 to 100 scale, 0 is no effect, 100 is complete control): 500 g ai/ha, visual injury approx. 10 d
Source text: as §1, §2

[7] = system: Galium (catchweed bedstraw, Galium aparine); experiment: Test A postemergence; conditions: for Galium plant response rating: 125 g ai/ha, postemergence, visual injury rating on 0 to 100 scale (0 no effect, 100 complete control), approx. 10 d; for Plant response rating, Galium: Postemergence, 500 g ai/ha, 0 to 100 scale where 0 is no effect and 100 is complete control
Source text: as §1, §2

Kochia (Kochia scoparia) [8] = experiment: Test A postemergence; conditions: for Kochia plant response rating: 125 g ai/ha, postemergence, visual injury rating on 0 to 100 scale (0 no effect, 100 complete control), approx. 10 d; for Plant response rating, Kochia: Postemergence, 500 g ai/ha, 0 to 100 scale where 0 is no effect and 100 is complete control
Source text: as §1, §2

[9] = system: barnyardgrass (Echinochloa crus-galli); experiment: Test A postemergence; conditions: for Barnyardgrass plant response rating: 125 g ai/ha, postemergence, visual injury rating on 0 to 100 scale (0 no effect, 100 complete control), approx. 10 d; for Plant response rating, Barnyardgrass: Postemergence, 500 g ai/ha, 0 to 100 scale where 0 is no effect and 100 is complete control
Source text: as §1, §2

[10] = system: blackgrass (Alopecurus myosuroides); experiment: Test A postemergence; conditions: for Blackgrass plant response rating: 125 g ai/ha, postemergence, visual injury rating on 0 to 100 scale (0 no effect, 100 complete control), approx. 10 d; for Plant response rating, Blackgrass: Postemergence, 500 g ai/ha, 0 to 100 scale where 0 is no effect and 100 is complete control
Source text: as §1, §2

corn (Zea mays) = experiment: Test A postemergence; conditions: for Corn plant response rating: 125 g ai/ha, postemergence, visual injury rating on 0 to 100 scale (0 no effect, 100 complete control), approx. 10 d; for Plant response rating, Corn: Postemergence, 500 g ai/ha, 0 to 100 scale where 0 is no effect and 100 is complete control
Source text: as §1, §2

[11] = system: giant foxtail (Setaria faberii); experiment: Test A postemergence; conditions: for Foxtail, Giant plant response rating: 125 g ai/ha, postemergence, visual injury rating on 0 to 100 scale (0 no effect, 100 complete control), approx. 10 d; for Plant response rating, Foxtail, Giant: Postemergence, 500 g ai/ha, 0 to 100 scale where 0 is no effect and 100 is complete control
Source text: as §1, §2

[12] = system: pigweed (Amaranthus retroflexus); experiment: Test A postemergence; conditions: for Pigweed plant response rating: 125 g ai/ha, postemergence, visual injury rating on 0 to 100 scale (0 no effect, 100 complete control), approx. 10 d; for Plant response rating, Pigweed: Postemergence, 500 g ai/ha, 0 to 100 scale where 0 is no effect and 100 is complete control
Source text: as §1, §2

[13] = system: ragweed (common ragweed, Ambrosia elatior); experiment: Test A postemergence; conditions: for Ragweed plant response rating: 125 g ai/ha, postemergence, visual injury rating on 0 to 100 scale (0 no effect, 100 complete control), approx. 10 d; for Plant response rating, Ragweed: Postemergence, 500 g ai/ha, 0 to 100 scale where 0 is no effect and 100 is complete control
Source text: as §1, §2

[14] = system: ryegrass, Italian (Italian ryegrass, Lolium multiflorum); experiment: Test A postemergence; conditions: for Ryegrass, Italian plant response rating: 125 g ai/ha, postemergence, visual injury rating on 0 to 100 scale (0 no effect, 100 complete control), approx. 10 d; for Plant response rating, Ryegrass, Italian: Postemergence, 500 g ai/ha, 0 to 100 scale where 0 is no effect and 100 is complete control
Source text: as §1, §2

[15] = system: wheat (Triticum aestivum); experiment: Test A postemergence; conditions: for Wheat plant response rating: 125 g ai/ha, postemergence, visual injury rating on 0 to 100 scale (0 no effect, 100 complete control), approx. 10 d; for Plant response rating, Wheat: Postemergence, 500 g ai/ha, 0 to 100 scale where 0 is no effect and 100 is complete control
Source text: as §1, §2

[16] = system: barnyardgrass (Echinochloa crus-galli); experiment: Test B flooded paddy test; conditions: Flood, 250 g ai/ha; 0 to 100 scale where 0 is no effect and 100 is complete control; 13 to 15 d
Procedure: (§3) Plant species in the flooded paddy test selected from rice (Oryra sativa), sedge, umbrella (small-flower umbrella sedge, Cyperus difformis), ducksalad (Heteranthera limosa), and barnyardgrass (Echinochloa crus-galli) were grown to the 2-leaf stage for testing. At time of treatment, test pots were flooded to 3 cm above the soil surface, treated by application of test compounds directly to the paddy water, and then maintained at that water depth for the duration of the test. Treated plants and controls were maintained in a greenhouse for 13 to 15 d, after which time all species were compared to controls and visually evaluated. Plant response ratings, summarized in Table B, are based on a scale of 0 to 100 where 0 is no effect and 100 is complete control. A dash (-) response means no test result.

[17] = system: ducksalad (Heteranthera limosa); experiment: Test B flooded paddy test; conditions: Flood, 250 g ai/ha; 0 to 100 scale where 0 is no effect and 100 is complete control; 13 to 15 d
Procedure: as §3

rice (Oryra sativa) = experiment: Test B flooded paddy test; conditions: Flood, 250 g ai/ha; 0 to 100 scale where 0 is no effect and 100 is complete control; 13 to 15 d
Procedure: as §3

[18] = system: sedge, umbrella (small-flower umbrella sedge, Cyperus difformis); experiment: Test B flooded paddy test; conditions: Flood, 250 g ai/ha; 0 to 100 scale where 0 is no effect and 100 is complete control; 13 to 15 d
Procedure: as §3

| Compound | Plant response rating, Kochia (Kochia (Kochia scoparia) [1]) | Kochia plant response rating (0 to 100 scale, 0 is no effect, 100 is complete control) (Kochia (Kochia scoparia) [1]) | Plant response rating, Barnyardgrass [2] | Barnyardgrass plant response rating (0 to 100 scale, 0 is no effect, 100 is complete control) [2] | Plant response rating, Foxtail, Giant [3] | Foxtail, Giant plant response rating (0 to 100 scale, 0 is no effect, 100 is complete control) [3] | Plant response rating, Pigweed [4] | Pigweed plant response rating (0 to 100 scale, 0 is no effect, 100 is complete control) [4] | Plant response rating, Ragweed [5] | Ragweed plant response rating (0 to 100 scale, 0 is no effect, 100 is complete control) [5] | Plant response rating, Ryegrass, Italian [6] | Ryegrass, Italian plant response rating (0 to 100 scale, 0 is no effect, 100 is complete control) [6] | Galium plant response rating [7] | Plant response rating, Galium [7] | Kochia plant response rating (Kochia (Kochia scoparia) [8]) | Plant response rating, Kochia (Kochia (Kochia scoparia) [8]) | Barnyardgrass plant response rating [9] | Plant response rating, Barnyardgrass [9] | Blackgrass plant response rating [10] | Plant response rating, Blackgrass [10] | other results |
| --- | --- | --- | --- | --- | --- | --- | --- | --- | --- | --- | --- | --- | --- | --- | --- | --- | --- | --- | --- | --- | --- |
| O=C1NCC(c2ccc(C3CC3)cc2)C1C(=O)Nc1cccc(F)c1F (racemic) [Compound 501] | 0 | 30 | 80 | 90 | 80 | 90 | 0 | 20 | 0 | 50 | 0 | 0 | 0 | 0 | 0 | 0 | 50 | 80 | 30 | 40 | Corn plant response rating (corn (Zea mays)): 0; Plant response rating, Corn (corn (Zea mays)): 30; Foxtail, Giant plant response rating [11]: 70; Plant response rating, Foxtail, Giant [11]: 80; Pigweed plant response rating [12]: 0; Plant response rating, Pigweed [12]: 0; Ragweed plant response rating [13]: 0; Plant response rating, Ragweed [13]: 0; Ryegrass, Italian plant response rating [14]: 0; Plant response rating, Ryegrass, Italian [14]: 20; Wheat plant response rating [15]: 0; Plant response rating, Wheat [15]: 0; Plant response rating, Barnyardgrass [16]: 20; Plant response rating, Ducksalad [17]: 85; Plant response rating, Rice (rice (Oryra sativa)): 0; Plant response rating, Sedge, Umbrella [18]: 0 |
| Cc1ccc(C2CNC(=O)C2C(=O)Nc2ccc(F)cc2F)c(F)c1 (racemic) [Compound 508] | 0 | 0 | 70 | 90 | 40 | 70 | 0 | 0 | 0 | 0 | 0 | 0 | 0 | 20 | 0 | 20 | 70 | 90 | 0 | 0 | Corn plant response rating (corn (Zea mays)): 0; Plant response rating, Corn (corn (Zea mays)): 20; Foxtail, Giant plant response rating [11]: 0; Plant response rating, Foxtail, Giant [11]: 40; Pigweed plant response rating [12]: 0; Plant response rating, Pigweed [12]: 20; Ragweed plant response rating [13]: 0; Plant response rating, Ragweed [13]: 0; Ryegrass, Italian plant response rating [14]: 0; Plant response rating, Ryegrass, Italian [14]: 0; Wheat plant response rating [15]: 0; Plant response rating, Wheat [15]: 20; Plant response rating, Barnyardgrass [16]: 0; Plant response rating, Ducksalad [17]: 50; Plant response rating, Rice (rice (Oryra sativa)): 0; Plant response rating, Sedge, Umbrella [18]: 0 |
